In patent US9572315B2, “ALS inhibitor herbicide tolerant B. napus mutants” (BAYER INTELLECTUAL PROPERTY GMBH, priority 2011, dated 2017):

Experiments:
[1] = tested on: B. napus plants of the present invention; test: Sensitivity to ALS inhibitor herbicide compared to wild type; parameters: species or system Brassica napus; settings: B. napus plant described in the Examples vs wild type
[2] = tested on: B. napus wild type line SR002201 (NCIMB 41813); test: ALS-inhibitor herbicide injury on B. napus, greenhouse spray trial, visual scoring; format: in vivo, Brassica napus
Method: (§1) The individual components herbicide and surfactant with regard to type and application rate as stated in table I were added with stirring to a water application rate of 300 l/ha so that a homogeneous spray mixture was formed.
(§2) Seeds of B. napus were sown in a sandy loam soil and placed in a climate chamber in a greenhouse under good growth conditions (16 h light, temperature day 14° C., night: 8° C.). The plants were grown up to growth stage of BBCH 12 to BBCH 13. […] After the treatment, the plants were returned to the climate chamber.
(§3) Visual scoring was carried out using a percentage scale of 0%=no damage to 100%=all plants dead.

[3] = tested on: B. napus mutant FM 202 (ALS I A190V, ALS III W556L); test: as above; format: in vivo, Brassica napus
Method: as §1, §2, §3

[4] = tested on: plants regenerated from the clone FM202; test: Growth of regenerated plants in presence of herbicide; format: cell-based, Brassica napus; settings: high concentration of ALS inhibitor (selection at 10^−4 M)
[5] = Brassica napus, 336 h, 35 g a.i./ha, spray at BBCH 12-13 with Mero 1 l/ha, visual scoring 14 days after application, 0%=no damage, 100%=all plants dead
[6] = 15 g a.i./ha, spray at BBCH 12-13 with Mero 1 l/ha, visual scoring 14 days after application, 0%=no damage, 100%=all plants dead
[7] = Brassica napus, 336 h, 30 g a.i./ha, spray at BBCH 12-13 with Mero 1 l/ha, visual scoring 14 days after application, 0%=no damage, 100%=all plants dead
[8] = Brassica napus, 336 h, 7 g a.i./ha, spray at BBCH 12-13 with Mero 1 l/ha, visual scoring 14 days after application, 0%=no damage, 100%=all plants dead
[9] = 20 g a.i./ha, spray at BBCH 12-13 with Mero 1 l/ha, visual scoring 14 days after application, 0%=no damage, 100%=all plants dead
[10] = 30 g a.i./ha, spray at BBCH 12-13 with Mero 1 l/ha, visual scoring 14 days after application, 0%=no damage, 100%=all plants dead

What does the source list for COc1cc(OC)nc(NC(=O)NS(=O)(=O)c2cc(NC=O)ccc2C(=O)N(C)C)n1 [Foramsulfuron]?
times less sensitive to the ALS inhibitor herbicide compared to the wild type enzyme [1]: at least 1000 times; pest or weed control at 35 g/ha [2, 5]: 75%; pest or weed control at 35 g/ha [3, 5]: 0%

COc1cc(OC)nc(NC(=O)NS(=O)(=O)c2cc(CNS(C)(=O)=O)ccc2C(=O)O)n1 [Mesosulfuron] was tested. Which “Herbicide injury on B. napus SR002201” value [2, 6] did it give?
The value was 90%.

And the “Herbicide injury on B. napus FM 202” value [3, 6]?
The value was 0%.

With CCOc1ccccc1OS(=O)(=O)NC(=O)Nc1nc(OC)cc(OC)n1 [Ethoxysulfuron] as the compound, how does the “Herbicide injury on B. napus FM 202” value ([3]; 60 g a.i./ha, spray at BBCH 12-13 with Mero 1 l/ha, visual scoring 14 days after application, 0%=no damage, 100%=all plants dead) read?
The value was 0%.

COc1cc(OC)nc(NC(=O)[N-]S(=O)(=O)c2ncccc2C2=NOCCO2)n1.[Na+] [Compound of formula (I)] was tested. Which “growth of plants regenerated from clone FM202 in presence of the ALS inhibitor” value [4] did it give?
The value was “able to grow”.

With COc1nc(C)nc(NC(=O)NS(=O)(=O)c2ccccc2Cl)n1 [Chlorsulfuron] as the compound, how does the “Herbicide injury on B. napus FM 202” value ([3]; 9 g a.i./ha, spray at BBCH 12-13 with Mero 1 l/ha, visual scoring 14 days after application, 0%=no damage, 100%=all plants dead) read?
Its value is 0%.

Which “Herbicide injury on B. napus FM 202” value ([3]; 40 g a.i./ha, spray at BBCH 12-13 with Mero 1 l/ha, visual scoring 14 days after application, 0%=no damage, 100%=all plants dead) does the source give for COCc1cnc(C2=NC(C)(C(C)C)C(=O)N2)c(C(=O)O)c1 (stereo not drawn) [Imazamox] here?
The value was 0%.

How did the pest or weed control at 30 g/ha [2, 7] turn out when COc1cc(OC)nc(NC(=O)NS(=O)(=O)N(C)S(C)(=O)=O)n1 [Amidosulfuron] was run?
The pest or weed control at 30 g/ha was 93%.

And the pest or weed control at 30 g/ha [3, 7]?
Its pest or weed control at 30 g/ha is 0%.

Which pest or weed control at 7 g/ha [2, 8] does the source give for COc1nc(C)nc(NC(=O)NS(=O)(=O)c2cc(I)ccc2C(=O)O)n1 [Iodosulfuron] here?
The pest or weed control at 7 g/ha was 95%.

What about the pest or weed control at 7 g/ha [3, 8] of the same compound?
Its pest or weed control at 7 g/ha is 0%.

For COc1nn(C(=O)NS(=O)(=O)c2c(C(=O)O)csc2C)c(=O)n1C [Thiencarbazone], which “Herbicide injury on B. napus SR002201” value [2, 9] is on record?
Its value is 90%.

And the “Herbicide injury on B. napus FM 202” value [3, 9]?
Its value is 0%.

For COc1nc(C)nc(=NC(=O)NS(=O)(=O)c2ccccc2C(=O)O)[nH]1 [Metsulfuron], which pest or weed control at 8 g/ha ([2]; Brassica napus, 336 h, read-out: Herbicide injury on B. napus SR002201) is on record?
The pest or weed control at 8 g/ha was 93%.

And the pest or weed control at 8 g/ha ([3]; Brassica napus, 336 h, read-out: Herbicide injury on B. napus FM 202)?
The pest or weed control at 8 g/ha was 0%.

With COc1nc(C)nc(N(C)C(=O)NS(=O)(=O)c2ccccc2C(=O)O)n1 [Tribenuron] as the compound, how does the “Herbicide injury on B. napus SR002201” value [2, 10] read?
The value was 95%.

What about the “Herbicide injury on B. napus FM 202” value [3, 10] of the same compound?
The value was 3%.

With Cc1cccc(C(=O)O)c1S(=O)(=O)NC(=O)Nc1nc(OCC(F)(F)F)nc(N(C)C)n1 [Triflusulfuron] as the compound, how does the “Herbicide injury on B. napus SR002201” value [2, 9] read?
Its value is 65%.

What about the “Herbicide injury on B. napus FM 202” value [3, 9] of the same compound?
The value was 0%.
